From the supplement of paper PMC10307832

Experiments:
Experiment in all cases: relative viability (nuclei count vs DMSO), 5 days (fraction); higher = more cells survive
[1] = compound: CC1=CC(=NN1)NC2=CC(=NC(=N2)/C=C/C3=CC=CC=C3)N4CCN(CC4)C + Cc1cc(Nc2cc(N3CCN(C)CC3)nc(Sc3ccc(NC(=O)C4CC4)cc3)n2)n[nH]1 [Tozasertib] (partner 0.1 µM)
Procedure, shortened: (§1)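 Nuclei were stained with Hoechst during a one-step fixation (final 0.05% Triton X-100, 1% formaldehyde, 1 ug/ml Hoechst) carried out 5 days after dosing, then counted on 4× images. The cells, lung cancer lines in 1536-well plates, had been dosed by pin tool the day after seeding with one drug alone or a fixed anchor-drug dose plus five library-drug doses (not always all listed) in √10 steps. Relative viability is the nuclei count in treated wells divided by that in vehicle wells, and each value is the median of duplicate plates.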

[2] = compound: CC1=CC(=NN1)NC2=CC(=NC(=N2)/C=C/C3=CC=CC=C3)N4CCN(CC4)C + O=C(c1cc(Cc2n[nH]c(=O)c3ccccc23)ccc1F)N1CCN(C(=O)C2CC2)CC1 [Olaparib] (partner 8 µM)
Procedure, shortened: as §1

Bortezomib + Tozasertib = compound: CC(C)C[C@H](NC(=O)[C@H](Cc1ccccc1)NC(=O)c1cnccn1)B(O)O [Bortezomib] + Cc1cc(Nc2cc(N3CCN(C)CC3)nc(Sc3ccc(NC(=O)C4CC4)cc3)n2)n[nH]1 [Tozasertib] (partner 0.1 µM)
Procedure, shortened: as §1

Obatoclax + Trametinib = compound: COC1=CC(c2cc3ccccc3[nH]2)=N/C1=C\c1[nH]c(C)cc1C [Obatoclax] + CC(=O)Nc1cccc(-n2c(=O)n(C3CC3)c(=O)c3c(Nc4ccc(I)cc4F)n(C)c(=O)c(C)c32)c1 [Trametinib] (partner 0.02 µM)
Procedure, shortened: as §1

Cell Line | relative viability ([1]; first compound 0.08 µM) | relative viability ([1]; first compound 0.253 µM) | relative viability ([1]; first compound 0.8 µM) | relative viability ([1]; first compound 2.53 µM) | relative viability ([1]; first compound 8 µM) | relative viability ([2]; first compound 0.08 µM) | relative viability ([2]; first compound 0.253 µM) | relative viability ([2]; first compound 0.8 µM) | relative viability ([2]; first compound 2.53 µM) | relative viability ([2]; first compound 8 µM) | relative viability (Bortezomib + Tozasertib; first compound 0.0002 µM) | relative viability (Bortezomib + Tozasertib; first compound 0.000632 µM) | relative viability (Bortezomib + Tozasertib; first compound 0.002 µM) | relative viability (Bortezomib + Tozasertib; first compound 0.006325 µM) | relative viability (Bortezomib + Tozasertib; first compound 0.02 µM) | relative viability (Obatoclax + Trametinib; first compound 0.01 µM) | relative viability (Obatoclax + Trametinib; first compound 0.03162 µM) | relative viability (Obatoclax + Trametinib; first compound 0.1 µM) | relative viability (Obatoclax + Trametinib; first compound 0.3162 µM) | relative viability (Obatoclax + Trametinib; first compound 1 µM)
NCI-H1666 | 0.559 | 0.549 | 0.554 | 0.336 | 0.298 | 0.748 | 0.7 | 0.767 | 0.741 | 0.501 | 0.558 | 0.664 | 0.51 | 0.296 | 0.261 | 0.753 | 0.849 | 0.949 | 0.805 | 0.637
NCI-H1734 | 0.256 | 0.238 | 0.239 | 0.227 | 0.157 | 0.562 | 0.645 | 0.554 | 0.408 | 0.118 | 0.263 | 0.295 | 0.276 | 0.133 | 0.093 | 0.636 | 0.744 | 0.688 | 0.681 | 0.689
NCI-H1755 | 0.539 | 0.563 | 0.524 | 0.333 | 0.211 | 0.877 | 0.89 | 0.856 | 0.514 | 0.253 | 0.571 | 0.612 | 0.566 | 0.193 | 0.157 | 0.673 | 0.769 | 0.77 | 0.752 | 0.799
NCI-H1793 | 0.298 | 0.537 | 0.207 | 0.123 | 0.111 | 0.845 | 1.06 | 0.667 | 0.138 | 0.0993 | 0.316 | 0.299 | 0.444 | 0.252 | 0.102 | 0.341 | 0.458 | 0.445 | 0.447 | 0.42
NCI-H1915 | 0.462 | 0.34 | 0.334 | 0.16 | 0.135 | 0.256 | 0.255 | 0.262 | 0.223 | 0.126 | 0.428 | 0.448 | 0.416 | 0.0502 | 0.0519 | 0.296 | 0.285 | 0.328 | 0.284 | 0.315
NCI-H1944 | 0.266 | 0.284 | 0.223 | 0.184 | 0.136 | 0.416 | 0.406 | 0.467 | 0.29 | 0.207 | 0.234 | 0.248 | 0.247 | 0.195 | 0.136 | 0.407 | 0.391 | 0.428 | 0.392 | 0.398
NCI-H1975 | 0.62 | 0.729 | 0.416 | 0.127 | 0.0865 | 0.75 | 0.842 | 0.726 | 0.389 | 0.115 | 0.676 | 0.831 | 0.099 | 0.0653 | 0.088 | 0.407 | 0.32 | 0.213 | 0.352 | 0.206
NCI-H1993 | 0.553 | 0.524 | 0.577 | 0.485 | 0.52 | 1.01 | 1.24 | 0.894 | 0.829 | 0.419 | 0.595 | 0.635 | 0.576 | 0.454 | 0.448 | 0.553 | 0.632 | 0.574 | 0.462 | 0.72
NCI-H2009 | 0.656 | 0.73 | 0.663 | 0.368 | 0.217 | 0.657 | 0.746 | 0.691 | 0.811 | 0.324 | 0.725 | 0.807 | 0.704 | 0.229 | 0.0821 | 0.32 | 0.313 | 0.252 | 0.304 | 0.192
NCI-H2023 | 0.266 | 0.305 | 0.235 | 0.0983 | 0.0659 | 0.464 | 0.586 | 0.384 | 0.0975 | 0.0526 | 0.305 | 0.356 | 0.428 | 0.329 | 0.0545 | 0.59 | 0.575 | 0.595 | 0.362 | 0.226
NCI-H2085 | 0.823 | 0.749 | 0.629 | 0.424 | 0.433 | 0.783 | 0.792 | 0.755 | 0.429 | 0.28 | 0.873 | 0.872 | 0.697 | 0.302 | 0.281 | 0.671 | 0.598 | 0.582 | 0.405 | 0.377
NCI-H2087 | 0.229 | 0.238 | 0.195 | 0.162 | 0.11 | 0.538 | 0.629 | 0.553 | 0.303 | 0.0973 | 0.236 | 0.276 | 0.19 | 0.0648 | 0.0487 | 0.2 | 0.204 | 0.22 | 0.145 | 0.122
NCI-H2126 | 0.844 | 0.907 | 0.837 | 0.501 | 0.236 | 0.865 | 0.91 | 0.908 | 0.801 | 0.518 | 0.815 | 0.921 | 0.763 | 0.488 | 0.214 | 0.57 | 0.493 | 0.526 | 0.55 | 0.546
NCI-H2170 | 0.72 | 0.656 | 0.699 | 0.38 | 0.164 | 0.512 | 0.65 | 0.577 | 0.263 | 0.102 | 0.658 | 0.718 | 0.783 | 0.178 | 0.145 | 0.877 | 0.942 | 0.904 | 0.856 | 0.861
NCI-H2228 | 0.193 | 0.214 | 0.158 | 0.086 | 0.0648 | 0.699 | 0.727 | 0.374 | 0.316 | 0.0565 | 0.232 | 0.231 | 0.251 | 0.0818 | 0.102 | 0.573 | 0.454 | 0.576 | 0.473 | 0.474
NCI-H2342 | 0.527 | 0.503 | 0.438 | 0.376 | 0.324 | 0.411 | 0.419 | 0.417 | 0.412 | 0.268 | 0.765 | 0.471 | 0.511 | 0.409 | 0.313 | 0.859 | 0.849 | 0.907 | 0.788 | 0.861
